Where “and” joins values, the source holds several entries; their conditions need not be identical. Identical values can stand only once.
Test system: 883617-216-R-J1-PDC complex spheroid viability
Assay: Anticancer human tumor 883617-216-R-J1-PDC patient-derived bladder carcinoma cell line growth inhibition [POLQ]
Details: for viability, T/C: stronger effect = lower value; for IC50: curve of compound
Description: Multicellular complex tumor spheroid response to Polymerase (POL) inhibitors (novobiocin, ART-558, RP6685) in combination with a variety of drugs and investigational agents in selected tumor cell lines
The POL inhibitors (novobiocin, ART-558, and RP6685) were evaluated both individually and in combination with standard of care and investigational anticancer small molecules within a complex spheroid model of solid tumors. . Complex spheroids include a stromal component modeled by human endothelial cells (HUVEC) and fibroblasts modeled by human mesenchymal stem cells (MSCs). The concentration ranges selected for each drug and investigational agent were based upon clinically achievable concentrations if the clinical Cmax of the agent was known.
Compounds. The drugs and investigational agents: novobiocin (NSC847541), ART-558 (NSC835418), RP-6685 (NSC848927), peposertib (NSC802822), ceralasertib (NSC780249), elimusertib (NSC800525), camonsertib (NSC841442), AZD-1390 (NSC803789), olaparib (NSC753686), talazoparib (NSC767125), rucaparib (NSC756644), sotorasib (NSC818433), MRTX-1133 (NSC836407), SN-38 (NSC673596), topotecan (NSC609699), epotoside (NSC141540), doxorubicin (NSC123127), gemcitabine (NSC613327), 5-fluorouracil (NSC19893), paclitaxel (NSC125973), vemurafenib (NSC761431), MSA-2 (NSC828583), SN-011 (NSC837082), adavosertib (NSC754352), prexasertib (NSC758257), carboplatin (NSC241240) and oxaliplatin (NSC266046), were obtained from the National Cancer Institute (NCI) Developmental Therapeutics Program Chemical Repository (21). The FDA-approved anticancer drug set is available from the Developmental Therapeutics Program at https://dtp.cancer.gov/organization/dscb/obtaining/. […] The stock solutions were prepared in dimethyl sulfoxide (DMSO, Sigma-Aldrich, St. Louis, MO, cat. D2650), except for the platinum compounds which were prepared in saline (Quality Biological, Gaithersburg, MD, cat. 114-055-101), at 800-fold the tested concentration and stored at -70 degrees C prior to their use. All drugs and investigational agents were tested over a range starting from a high concentration at or near the clinical Cmax and decreasing in half-log increments. If the clinical Cmax for an agent had not been determined, the highest concentration tested was 10 microM, except for SN-38, which was tested at a high concentration of 1 microM.
Cell Culture. All cells were maintained in an incubator at 37 degrees C and 5% CO2 with 95% humidity. The PDC lines were cultured according to standard operating procedures established by the NCI PDMR (https://pdmr.cancer.gov). Table 3 of the manuscript, lists the cell lines along with the number of the three cell types plated to form the mct-spheroids and media for tumor cell growth. After thawing, all PDC lines, except 997537-175-T-J1-PDC and 415267-285-R-J2-PDC, were cultured in Matrigel-coated flasks prepared with a working solution of 1X Ham's F-12 nutrient mix, without supplementation (Thermo Fisher Scientific, cat. 11765054), 100 U/mL penicillin-streptomycin (Thermo Fisher Scientific, cat. 15140122), and 2.5% Matrigel (Corning Inc., Corning, NY, cat. 354248) for the first three passages. The two PDC lines 997537-175-T-J1-PDC and 415267-285-R-J2-PDC were cultured on uncoated flasks. The 857933-349-R-J2-PDC line was cultured in 6C/Colon 1B media containing advanced DMEM/F-12 (Thermo Fisher Scientific, cat. 12634028), 10 mM HEPES (Thermo Fisher Scientific, cat. 15630080), 1X GlutaMAX supplement (Thermo Fisher Scientific, cat. 35050061), 0.1 mg/mL primocin (InvivoGen, San Diego, CA, cat. ant-pm-2), 10% defined fetal bovine serum, heat inactivated (HyClone Laboratories Inc., Logan, UT, cat. SH30070.03HI), 50% L-WRN conditioned media (ATCC, cat. CRL-3276), 1.25 mM N-Acetyl-L-cysteine (Sigma-Aldrich, cat. A9165), 10 mM nicotinamide (Sigma-Aldrich, cat. N0636), 1X B-27 supplement (Thermo Fisher Scientific, cat. 17504044), 1X N-2 supplement (Thermo Fisher Scientific, cat. […]
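Also: spheroids exposed to compounds for seven days before readout.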
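For viability, T/C in this document: 100% = DMSO vehicle control viability.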

| SMILES | viability, T/C (compound 0.0316 µM) | viability, T/C (compound 0.1 µM) | viability, T/C (compound 0.316 µM) | viability, T/C (compound 1 µM) | viability, T/C (compound 3.16 µM) | viability, T/C (compound 10 µM) | IC50 | viability, T/C (compound 0.00316 µM) | viability, T/C (compound 0.01 µM) | viability, T/C (compound 0.00949 µM) | viability, T/C (compound 0.03 µM) | viability, T/C (compound 0.0949 µM) | viability, T/C (compound 0.3 µM) | viability, T/C (compound 0.949 µM) | viability, T/C (compound 3 µM) | viability, T/C (compound 0.000316 µM) | viability, T/C (compound 0.001 µM) |
| --- | --- | --- | --- | --- | --- | --- | --- | --- | --- | --- | --- | --- | --- | --- | --- | --- | --- |
| C#Cc1c(F)ccc2cc(O)cc(-c3ncc4c(N5CC6CCC(C5)N6)nc(OCC56CCCN5CC(F)C6)nc4c3F)c12 (stereo unspecified) | 98% and 83% and 93.6% | 95% and 94% and 84.2% | 101% and 82% and 104% | 95.3% and 81.1% and 88.5% | 94.2% and 83% and 85.1% | 72.5% and 74.3% and 83.1% | > 10000 nM |  |  |  |  |  |  |  |  |  |  |
| C=CC(=O)N1CCN(c2nc(=O)n(-c3c(C)ccnc3C(C)C)c3nc(-c4c(O)cccc4F)c(F)cc23)C(C)C1 (stereo unspecified) | 74.3% and 68% and 64% | 64.8% and 60.8% and 63.8% | 75.8% and 70.3% and 81.9% | 72.6% and 83.2% and 78.3% | 91.3% and 76.7% and 85% | 81.6% and 83.3% and 76.6% | > 10000 nM |  |  |  |  |  |  |  |  |  |  |
| C=CCn1c(=O)c2cnc(Nc3ccc(N4CCN(C)CC4)cc3)nc2n1-c1cccc(C(C)(C)O)n1 | 100% and 108% and 112% | 107% and 87.8% and 93.7% | 85.4% and 72.3% and 92.5% | 48.6% and 50.2% and 50.6% |  |  | 960 nM and > 1000 nM | 97.5% and 107% and 98.8% | 100% and 96.8% and 90.3% |  |  |  |  |  |  |  |  |
| CC(=O)O[C@H]1C(=O)[C@@]2(C)[C@H]([C@H](OC(=O)c3ccccc3)[C@]3(O)C[C@H](OC(=O)[C@H](O)[C@@H](NC(=O)c4ccccc4)c4ccccc4)C(C)=C1C3(C)C)[C@]1(OC(C)=O)CO[C@@H]1C[C@@H]2O |  |  |  |  |  |  | < 9.49 nM and 13.9 nM |  |  | 44.9% and 57% and 43.1% | 32.5% and 35.8% and 26.7% | 22.9% and 26.7% and 15.8% | 30.6% and 21.1% and 24.6% | 28.4% and 23.5% and 25.1% | 26.5% and 19.3% (2×) |  |  |
| CC(C)n1c(=O)n(C)c2cnc3cc(F)c(-c4ccc(OCCCN5CCCCC5)nc4)cc3c21 | 96% and 105% and 102% | 90.3% and 101% and 98.8% | 112% and 103% and 111% | 106% and 108% and 94.5% | 87.5% and 84% and 102% | 52.9% and 72% and 69.1% | > 10000 nM |  |  |  |  |  |  |  |  |  |  |
| CC1COCCN1c1cc(-c2ccnn2C)c2ccnc(-c3ccn[nH]3)c2n1 (stereo unspecified) | 83.5% and 90% and 77.5% | 51.3% and 58.9% and 59.6% | 43.9% and 45.8% and 56.5% | 36.8% and 37.4% and 36.7% | 32.3% and 29.7% and 40.9% | 27.4% and 31.1% and 28.9% | 151 nM and 210 nM and 393 nM |  |  |  |  |  |  |  |  |  |  |
| CC1COCCN1c1cc(C2(O)CC3CCC(C2)O3)c2cnn(-c3ccn[nH]3)c2n1 (stereo unspecified) | 73.6% and 75.5% and 72.3% | 55.3% and 49.3% and 45.5% | 50.6% and 44.3% and 45.2% | 30.4% and 30% and 34.4% | 23.1% and 26.1% and 31% | 22.6% and 20.5% and 20.6% | 213 nM and 137 nM and 135 nM |  |  |  |  |  |  |  |  |  |  |
| CC1COCCN1c1cc(C2(S(C)(=N)=O)CC2)nc(-c2ccnc3[nH]ccc23)n1 (stereo unspecified) | 98.9% and 101% and 87.7% | 89.9% and 94.3% and 103% | 98.4% and 83.1% and 84% | 71% (2×) and 73.5% | 54.2% and 53.8% and 48.3% | 30.1% and 34.3% and 34.5% | 3500 nM and 4110 nM and 2820 nM |  |  |  |  |  |  |  |  |  |  |
| CCCS(=O)(=O)Nc1ccc(F)c(C(=O)c2c[nH]c3ncc(-c4ccc(Cl)cc4)cc23)c1F | 107% and 115% and 95.1% | 95.8% (2×) and 89.8% | 102% and 90.4% and 116% | 105% and 107% and 95.2% | 79.3% and 101% and 95.3% | 49.6% and 44.3% and 34.8% | 9880 nM and 8910 nM and 7500 nM |  |  |  |  |  |  |  |  |  |  |
| CC[C@@]1(O)C(=O)OCc2c1cc1n(c2=O)Cc2cc3c(CN(C)C)c(O)ccc3nc2-1 | 65.8% and 77.7% and 65.3% | 53.6% and 63.2% and 48.6% |  |  |  |  | > 100 nM and 89.8 nM | 104% and 94.3% and 91.6% | 83.4% and 88.9% and 88.8% |  |  |  |  |  |  | 97.3% and 105% and 101% | 92.3% and 95.7% and 97% |
| CCc1c2c(nc3ccc(O)cc13)-c1cc3c(c(=O)n1C2)COC(=O)[C@]3(O)CC | 59.9% and 65.7% and 60.6% | 48.4% and 64.6% and 47.4% | 33.3% and 41.8% and 31.2% | 18.5% and 31.8% and 23.8% |  |  | 95 nM and 220 nM and 63.1 nM | 60.2% and 77.9% and 72.8% | 56.4% and 60.8% and 57.2% |  |  |  |  |  |  |  |  |
| CCc1cc2c(N3CCc4c(cc(Cn5ccnc5)cc4-c4cn(C)nc4C(F)(F)F)C3=O)cc(C)nc2c(OC)n1 | 106% and 92.1% and 103% | 91.4% and 85.8% and 99.9% | 116% and 83.7% and 101% | 91% and 107% and 80.5% | 75% and 69.3% and 71.5% | 54.1% and 46.2% and 47.7% | > 10000 nM and 8290 nM and 9040 nM |  |  |  |  |  |  |  |  |  |  |
| CCc1cc2c(N3CCc4c(cc(Cn5ccnc5)cc4-c4cn(C)nc4C(F)(F)F)C3=O)ccnc2c(OC)n1 | 105% and 80.5% and 91.8% | 94% and 89.7% and 94.5% | 102% and 76.2% and 108% | 107% and 92.5% and 85.3% | 80.3% and 74.5% and 92% | 51% and 47.2% and 50.3% | > 10000 nM and 8890 nM |  |  |  |  |  |  |  |  |  |  |
